Test results taken from patent US12384765B2, “Catecholamine prodrugs for use in the treatment of Parkinson's Disease” (H. Lundbeck A/S, priority 2019, dated 2025).
“Also recorded” adds a separate entry of the source.

Key:
[1] = Conversion of compounds in human plasma; type: in vitro ADME; details: for Observed metabolite, Incubation in human plasma: 1 μM test compound, 37° C., 0-6 hr, nd: not detected; for appearance of compound (I) / conversion in vitro: incubation in human plasma and/or human hepatocytes
Experimental: Frozen human plasma was thawed and then centrifuged at 3200×g for 5 min to remove debris. The pH value of the supernatant was then measured and adjusted to 7.4±0.1 by adding 1% phosphoric acid or 1 N sodium hydroxide. 2 μL of dosing solution (50 μM for test compounds and 100 μM for positive control (propantheline bromide)) was mixed with 98 μL of blank plasma to achieve 1 μM test compound and 2 μM positive control of final concentration. The mixture was incubated, and samples were withdrawn from the incubations at the pre-determined time points of 0, 0.5, 1, 2, 4 and 6 hr (in duplicate) at 37° C. in water bath. At each corresponding time point 10 μL inhibitor and 20 μL ascorbic acid and 2 μL formic acid (20%) are added, and then added 400 μL of “stop solution” (200 ng/mL tolbutamide plus 200 ng/mL labetalol in 50% ACN/MeOH) to precipitate protein. The substance was mixed thoroughly and thereafter Centrifugated at 4,000 rpm for 20 minutes. Then an aliquot of supernatant (50 μL) was transferred from each well to a sample plate and mixed with 100 μL ultrapure water. The plate was shaked at 800 rpm for about 10 minutes before submitting to LC-MS/MS analysis.
(§1) Mass spectrometer (LC-MS/MS) Shimadzu LC 20-AD Shimadzu UHPLC API 4000. Analytical column ACQUITY UPLC® BEH Phenyl 1.7 μm 2.1×50 mm. Mobile phase A: 0.1% Formic Acid in Water. Mobile phase B: 0.1% Formic Acid in Acetonitrile. […] Flow rate 0.7 mL/min.

human 5-HT2B receptor = human 5-HT2B receptor (Homo sapiens (Human), UniProt P41595); test: 5-HT2B agonist activity assay (IP1 production, HTRF); type: cell-based; details: for activity at 10 µM: read-out: 5-HT2B agonist activity, percent of control response
Sequence of human 5-HT2B receptor (P41595 whole entry): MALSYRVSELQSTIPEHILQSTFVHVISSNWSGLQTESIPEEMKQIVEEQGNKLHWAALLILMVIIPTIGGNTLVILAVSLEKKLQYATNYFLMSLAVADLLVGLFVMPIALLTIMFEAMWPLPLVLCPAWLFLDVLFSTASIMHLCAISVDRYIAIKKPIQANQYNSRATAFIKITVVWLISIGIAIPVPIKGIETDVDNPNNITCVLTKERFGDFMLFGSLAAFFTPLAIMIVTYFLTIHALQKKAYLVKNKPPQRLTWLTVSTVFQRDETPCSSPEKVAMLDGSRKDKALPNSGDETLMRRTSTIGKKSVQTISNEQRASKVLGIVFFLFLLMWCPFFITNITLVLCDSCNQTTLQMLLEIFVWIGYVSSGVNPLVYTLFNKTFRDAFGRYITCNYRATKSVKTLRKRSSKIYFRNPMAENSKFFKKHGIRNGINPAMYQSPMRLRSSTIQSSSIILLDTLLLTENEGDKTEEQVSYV
Experimental: Evaluation of the agonist activity of compounds (I), (Ia), (Ib), (Ic), (Ia-iab), compound (2), compound (9), compound (15), compound (27), A2, A3, and A7 at the human 5-HT2B receptor was performed by Eurofins/Cerep (France) measuring the compound effects on inositol monophosphate (IP1) production using the HTRF detection method. Briefly, the human 5-HT2B receptor was expressed in transfected CHO cells. The cells were suspended in a buffer containing 10 mM Hepes/NaOH (pH 7.4), 4.2 mM KCl, 146 mM NaCl, 1 mM CaCl2, 0.5 mM MgCl2, 5.5 mM glucose and 50 mM LiCl, then distributed in microplates at a density of 4100 cells/well and incubated for 30 minutes at 37° C. in the presence of buffer (basal control), test compound or reference agonist. For stimulated control measurement, separate assay wells contained 1 μM 5-HT. Following incubation, the cells were lysed and the fluorescence acceptor (fluorophen D2-labeled IP1) and fluorescence donor (anti-IP1 antibody labeled with europium cryptate) were added. After 60 minutes at room temperature, the fluorescence transfer was measured at lambda(Ex) 337 nm and lambda(Em) 620 and 665 nm using a microplate reader (Rubystar, BMG). The IP1 concentration was determined by dividing the signal measured at 665 nm by that measured at 620 nm (ratio). The results were expressed as a percent of the control response to 1 μM 5-HT. The standard reference agonist was 5-HT, which was tested in each experiment at several concentrations to generate a concentration-response curve from which its EC50 value is calculated as described above for dopamine functional assays.

human hepatocytes = test: Conversion of compounds in human hepatocytes; type: in vitro ADME; details: 1 μM compound, 37° C.; nd: not detected
Experimental: Incubations were conducted in 96-well plates at 1 μM compound concentration in duplicate. The hepatocyte cell concentration was 0.5×10^6 cells/mL used for final incubation at 37° C. in an incubator of 5% CO2 95% relative humidity. The medium control samples were included at 0 and 60 minutes in the absence of cells. The total organic concentration was 1% (DMSO 0.1%) in the final incubation. The controls, (7-ethoxycoumarin and 7-hydroxycoumarin) was incubated parallel at 3 μM. 2 μL of dosing solution (50 μM for test compounds and 100 μM for positive control) was mixed with 98 μL of 100 mM PBS to achieve 1 μM test compound and 2 μM positive control of final concentration. The mixture was incubated, and samples were withdrawn from the incubations at pre-determined time points of 0, 0.5, 1, 2, 4 and 6 hr (in duplicate) at 37° C. in water bath. To each sample, 10 μL inhibitor and 20 μL ascorbic acid and 2 μL formic acid (20%) were added followed by 400 μL of stop solution (200 ng/mL tolbutamide plus 200 ng/mL labetalol in 50% ACN/MeOH). The substance was mixed thoroughly and thereafter centrifuged at 4,000 rpm for 20 minutes. An aliquot of supernatant (50 μL) from each well were transferred to a sample plate and mixed with 100 μL ultrapure water. The plate was shaked at 800 rpm for about 10 minutes before submitting to LC-MS/MS analysis.
as §1

[2] = PK experiments in rats, plasma compound (I) after oral dosing; type: in vivo, Han Wistar rats; details: for conversion to compound (I) in vivo / Observed metabolite, In vivo PK study after oral dosing (rats): oral dosing, rats
Experimental: Plasma was placed on water-ice following collection. Final storage at approximately −70° C.
Mobile phase B: Acetonitrile. […] Flow rate 0.5 mL/min.
The rats had unrestricted access to the diet.
Mobile phase B: Acetonitrile+0.2% formic acid. […] Flow rate 0.3 mL/min.
The rats received a standard laboratory diet Teklad 2014C. The rats had unrestricted access to the diet.

Compound: CCCN1CCC[C@@H]2Cc3c(ccc(O[C@@H]4O[C@H](C(=O)OC)[C@@H](OC(C)=O)[C@H](OC(C)=O)[C@H]4OC(C)=O)c3OC(C)=O)C[C@H]21 [Compound A3, (2S,3R,4S,5S,6S)-2-(((4aR,10aR)-6-Acetoxy-1-propyl-1,2,3,4,4a,5,10,10a-octahydrobenzo[g]quinolin-7-yl)oxy)-6-(methoxycarbonyl)tetrahydro-2H-pyran-3,4,5-triyl triacetate]
- Observed metabolite, Incubation in human plasma [1]: compound (27)
- 5-HT2B agonist activity, percent of control response (human 5-HT2B receptor; @ 10 μM): 3% @ 10 μM

Compound: CCCN1CCC[C@@H]2Cc3c(ccc(OCc4ccccc4)c3O[C@@H]3O[C@H](C(=O)OCC)[C@@H](OC(=O)C(C)(C)C)[C@H](OC(=O)C(C)(C)C)[C@H]3OC(=O)C(C)(C)C)C[C@H]21 [Compound (13), (2S,3R,4S,5S,6S)-2-(((4aR,10aR)-7-(benzyloxy)-1-propyl-1,2,3,4,4a,5,10,10a-octahydrobenzo[g]quinolin-6-yl)oxy)-6-(ethoxycarbonyl)tetrahydro-2H-pyran-3,4,5-triyl tris(2,2-dimethylpropanoate)]
- Observed metabolite, Incubation in human hepatocytes (human hepatocytes): Compound (14)

Compound: CCCN1CCC[C@@H]2Cc3c(ccc(OCc4ccccc4)c3O[C@@H]3O[C@H](C(=O)OC)[C@@H](OC(C)=O)[C@H](OC(C)=O)[C@H]3OC(C)=O)C[C@H]21 [Compound (1), (2S,3R,4S,5S,6S)-2-(((4aR,10aR)-7-(benzyloxy)-1-propyl-1,2,3,4,4a,5,10,10a-octahydrobenzo[g]quinolin-6-yl)oxy)-6-(methoxycarbonyl)tetrahydro-2H-pyran-3,4,5-triyl triacetate]
- Observed metabolite, Incubation in human plasma [1]: Compound A2,; also recorded: compound (2)
- Observed metabolite, Incubation in human hepatocytes (human hepatocytes): Compound A2,; also recorded: Compound (4)

Compound: CCCN1CCC[C@@H]2Cc3c(ccc(O)c3O[C@@H]3OC(C(=O)O)=C[C@H](O)[C@H]3O)C[C@H]21 [Compound (9), (2R,3R,4S)-3,4-dihydroxy-2-(((4aR,10aR)-7-hydroxy-1-propyl-1,2,3,4,4a,5,10,10a-octahydrobenzo[g]quinolin-6-yl)oxy)-3,4-dihydro-2H-pyran-6-carboxylic acid]
- appearance of compound (I) / conversion in vitro [1]: no appearance of compound (I)
- conversion to compound (I) in vivo [2]: showed conversion in vivo
- activity at 10 µM (human 5-HT2B receptor): 9%

Compound: CCCN1CCC[C@@H]2Cc3c(ccc(OC)c3O[C@@H]3O[C@H](C(=O)OC)[C@@H](OC(=O)C(C)(C)C)[C@H](OC(=O)C(C)(C)C)[C@H]3OC(=O)C(C)(C)C)C[C@H]21 [Compound (22), (2S,3S,4S,5R,6S)-2-((methoxy)carbonyl)-6-(((4aR,10aR)-7-methoxy-1-propyl-1,2,3,4,4a,5,10,10a-octahydrobenzo[g]quinolin-6-yl)oxy)tetrahydro-2H-pyran-3,4,5-triyl tris(2,2-dimethylpropanoate)]
- Observed metabolite, Incubation in human plasma [1]: Compound (21)
- Observed metabolite, Incubation in human hepatocytes (human hepatocytes): Compound (21)

Compound: CCCN1CCC[C@@H]2Cc3c(ccc(OC)c3O[C@@H]3O[C@H](C(=O)OCc4ccccc4)[C@@H](OC(=O)C(C)(C)C)[C@H](OC(=O)C(C)(C)C)[C@H]3OC(=O)C(C)(C)C)C[C@H]21 [Compound (20), (2S,3S,4S,5R,6S)-2-((benzyloxy)carbonyl)-6-(((4aR,10aR)-7-methoxy-1-propyl-1,2,3,4,4a,5,10,10a-octahydrobenzo[g]quinolin-6-yl)oxy)tetrahydro-2H-pyran-3,4,5-triyltris(2,2-dimethylpropanoate)]
- Observed metabolite, Incubation in human plasma [1]: Compound (21)
- Observed metabolite, Incubation in human hepatocytes (human hepatocytes): Compound (21)

Compound: CCCN1CCC[C@@H]2Cc3c(ccc(OCc4ccccc4)c3O[C@@H]3O[C@H](C(=O)OC)[C@@H](OC(=O)C(C)(C)C)[C@H](OC(=O)C(C)(C)C)[C@H]3OC(=O)C(C)(C)C)C[C@H]21 [Compound (25), (2S,3R,4S,5S,6S)-2-(((4aR,10aR)-7-(benzyloxy)-1-propyl-1,2,3,4,4a,5,10,10a-octahydrobenzo[g]quinolin-6-yl)oxy)-6-(methoxycarbonyl)tetrahydro-2H-pyran-3,4,5-triyl tris(2,2-dimethylpropanoate)]
- Observed metabolite, Incubation in human plasma [1]: Compound A2,; also recorded: Compound (24)
- Observed metabolite, Incubation in human hepatocytes (human hepatocytes): Compound A2,; also recorded: Compound (24)

Compound: CCCN1CCC[C@@H]2Cc3c(ccc(OCc4ccccc4)c3O)C[C@H]21.I [Compound A2, (4aR,10aR)-7-(Benzyloxy)-1-propyl-1,2,3,4,4a,5,10,10a-octahydrobenzo[g]quinolin-6-ol hydroiodide]
- Observed metabolite, In vivo PK study after oral dosing (rats) [2]: Compound (I)
- activity at 10 µM (human 5-HT2B receptor): 30%

Compound: CCCN1CCC[C@@H]2Cc3c(ccc(O)c3O[C@@H]3O[C@H](C(=O)OC)[C@@H](OC(C)=O)[C@H](OC(C)=O)[C@H]3OC(C)=O)C[C@H]21 [Compound (2), (2S,3R,4S,5S,6S)-2-(((4aR,10aR)-7-hydroxy-1-propyl-1,2,3,4,4a,5,10,10a-octahydrobenzo[g]quinolin-6-yl)oxy)-6-(methoxycarbonyl)tetrahydro-2H-pyran-3,4,5-triyl triacetate]
- Observed metabolite, Incubation in human plasma [1]: Compound (Id-ia)
- appearance of compound (I) / conversion in vitro [1]: no appearance of compound (I)
- Observed metabolite, In vivo PK study after oral dosing (rats) [2]: Compound (I)
- conversion to compound (I) in vivo [2]: showed conversion in vivo
- activity at 10 µM (human 5-HT2B receptor): 10%

Compound: CCCN1CCC[C@@H]2Cc3c(ccc(O[C@@H]4O[C@H](C(=O)OC)[C@@H](OC(C)=O)[C@H](OC(C)=O)[C@H]4OC(C)=O)c3O)C[C@H]21 [Compound (27), (2S,3R,4S,5S,6S)-2-(((4aR,10aR)-6-hydroxy-1-propyl-1,2,3,4,4a,5,10,10a-octahydrobenzo[g]quinolin-7-yl)oxy)-6-(methoxycarbonyl)tetrahydro-2H-pyran-3,4,5-triyl triacetate]
- Observed metabolite, Incubation in human plasma [1]: Compound (Id-ib)
- Observed metabolite, In vivo PK study after oral dosing (rats) [2]: Compound (I)
- activity at 10 µM (human 5-HT2B receptor): 2%

Compound: CCCN1CCC[C@@H]2Cc3c(ccc(OC)c3O[C@@H]3O[C@H](C(=O)O)[C@@H](O)[C@H](O)[C@H]3O)C[C@H]21 [Compound (15), (2S,3S,4S,5R,6S)-3,4,5-trihydroxy-6-(((4aR,10aR)-7-methoxy-1-propyl-1,2,3,4,4a,5,10,10a-octahydrobenzo[g]quinolin-6-yl)oxy)tetrahydro-2H-pyran-2-carboxylic acid]
- appearance of compound (I) / conversion in vitro [1]: no appearance of compound (I)
- conversion to compound (I) in vivo [2]: showed conversion in vivo
- activity at 10 µM (human 5-HT2B receptor): 0%

Compound: CCCN1CCC[C@@H]2Cc3c(ccc(OC(=O)C(C)(C)C)c3OC(=O)C(C)(C)C)C[C@H]21 [(Ic), reference compound]
- plasma concentrations of compound (I) after oral dosing (in words) ([2]; oral dosing to Wistar rats): extremely low
- activity at 10 µM (human 5-HT2B receptor): -5%
